{
  "source": "patent US6716628B2",
  "about": "“Chondrogenesis promoters and indolin-2-one derivatives” (Chugai Seiyaku Kabushiki Kaisha, priority 1999, dated 2004)",
  "key": {"[1]": {"system": "common mouse chondrocyte and adipocyte precursor cell line (CL-1)", "assay": "Differentiation of CL-1 into chondrocytes, alcian blue/oil red O double staining", "type": "cell-based", "settings": "10 μmol/L, 7 days after confluency, vs vehicle control", "protocol": "[…] (WO98/39414) were cultured in a 4-well chamber slide (Nunc Corp.) to a cell density of 5000/cm^2. The medium used was A-MEM (GIBCO Corp.) containing 100 U/mL of penicillin (Meiji Seika Co., Ltd.), 100 μg/mL of streptomycin (Banyu Pharmaceutical Corp.) and 10% fetal bovine serum (INTERGEN Corp.). When the CL-1 cells reached confluency, compound A was added to a final concentration of 10 μmol/L, with further addition when the medium was exchanged 3 times a week during culturing for 7 days.\nA slide was also prepared with ethanol (Junsei Chemical Corp.) to a final concentration of 1% in the medium as a vehicle control. On the 7th day after confluency, the plates were collected, the CL-1 cell layer was double-stained with alcian blue and oil red O, and differentiation to chondrocytes or adipocytes was observed. After culturing was completed, the cell layer was fixed for one hour at room temperature with a 4% paraformaldehyde solution (Wako Pure Chemical Industries) and then washed with 0.1N hydrochloric acid and stained overnight with an aqueous solution (pH 1.0) of 1% alcian blue (EM Science Corp.). […]"}, "[2]": {"system": "common mouse chondrocyte and adipocyte precursor cell line (CL-1)", "assay": "Uptake of 35S-labeled sulfuric acid into CL-1", "type": "cell-based", "settings": "10 μmol/L (A and F also 1 or 5 μmol/L), 48 h culture, uptake in final 24 h", "protocol": "The above-mentioned cell line CL-1 was cultured in a 96-well cell culturing plate (Wallac Corp.) for a liquid scintillation counter (Wallac Corp.) to a cell density of 1000 per well. The medium used was α-MEM (GIBCO Corp.) containing 100 U/mL of penicillin (Meiji Seika Co., Ltd.), 100 μg/mL of streptomycin (Banyu Pharmaceutical Corp.) and 10% fetal bovine serum (INTERGEN Corp.). When the CL-1 cells reached confluency, the medium was exchanged with one containing 10 μmol/L of compounds A, B, C, D, E, F and G, and after 24 hours, ^35S-labeled sulfuric acid was added at 0.5 μCi per well and culturing was continued. For compounds A and F, a medium was also prepared with a concentration of 1 or 5 μmol/L. After 24 hours, the medium was discarded and the cell layer was fixed for 2 hours at room temperature using 0.2 mL of 5% paraformaldehyde (0.1 mol/L phosphate buffer solution (pH 7.4, Wako Pure Chemical Industries) containing 0.4% cetylpyridinium chloride (Wako Pure Chemical Industries). After discarding the fixing solution, it was washed once with the same solution and the washed solution was discarded. After adding 0.1 mL of scintillator (Wallac Corp.) to the cell layer and stirring, the radioactivity was measured with a scintillation counter (Wallac Corp.)."}, "[3]": {"system": "full thickness cartilage deficient rat models", "assay": "Cartilage repair effect in full thickness cartilage deficient rat models", "type": "in vivo", "settings": "1.0 mmol/L, 50 μL intraarticular daily for 3 weeks from day 7 after operation", "protocol": "A Kirschner wire with a 2.4 mm diameter (Mizuho Medical Instruments Corp.) was used to create a 2.5 mm-deep deficient area in the right femoral patellar surface, reaching to the marrow, in 10-week-old male CD rats (Nihon Charles River Co., Ltd.). From the seventh day after the operation, 50 μL of a 50% dimethylsulfoxide (DMSO) physiological saline solution as a solvent (DMSO: Junsei Chemical Corp.; physiological saline: Otsuka Pharmaceutical Corp.), or of a 1.0 mmol/L compound A solution, was administered into the right knee joint daily once a day for 3 weeks. The daily dosage of compound A was 81.7 μg.\nOn the day following the day of final administration, the right femur was taken, and fixed in 20% neutral buffered formaldehyde (Wako Pure Chemical Industries) for one week, and then demineralized for 2 weeks with 20% EDTA-4Na solution (pH 7.4, Wako Pure Chemical Industries), and the deficient area was trimmed with a razor (Feather Co., Ltd.). The trimmed area was subjected to paraffin blocking using an automatic embedding apparatus (Sakura Corp.) and paraffin (equivalent mixture of products by Kokusan Kagaku Corp. and Fisher Scientific Corp.). Here, a paraffin automatic dispensing embedding center (Miles Scientific Corp.) was used to fix each paraffin block in a tissue sample cassette (TISSUE-TEK Corp.)\nEach paraffin block was cut into 2 μm-thick sections using a microtome (Daiwa Optical Instruments Corp.) and microtome knife (Feather Co., Ltd.), and then attached onto slide glass (Matsunami Glass Corp.) and dried. After drying, the sections were dipped in xylene to remove the paraffin, and then dipped in a step dilution series from ethanol to water and then stored in water. The sections were stained with 0.3% Safranin O (Merck Co.,.Ltd.) and observed with a microscope (magnification: 10× object lens), and a histological score was assigned according to a modification of the method of Wakitani et al. (J. Bone Joint Surg. 76-A, 579-592, 1994)."}, "[4]": {"system": "common mouse chondrocyte and adipocyte precursor cell line (CL-1)", "assay": "Uptake of 35S-labeled sulfuric acid into CL-1", "type": "cell-based", "settings": "10 μmol/L (A and F also 1 or 5 μmol/L), 48 h culture"}},
  "data": [
    {"smiles": "CCOC(CN1C(=O)[C@](CC(=O)Nc2ccc(C)cc2)(NC(=O)Nc2ccc(C)cc2)c2ccccc21)OCC", "note": "[Compound A, (+)-1-(2,2-diethoxyethyl)-3-((4-methylphenyl)aminocarbonylmethyl)-3-(N′-(4-methylphenyl)ureido)indolin-2-one]", "values": [
      {"measurement": "differentiation of CL-1 to adipocytes (oil red O)", "setting": "[1]", "value": "suppressed"},
      {"measurement": "differentiation of CL-1 to chondrocytes (alcian blue)", "setting": "[1]", "value": "clearly promoted"},
      {"measurement": "differentiation of CL-1 to chondrocytes (from 35S-labeled sulfuric acid uptake)", "setting": "[2]", "value": "clearly promote"},
      {"measurement": "repair of deficient areas (Safranin O staining)", "setting": "[3]", "value": "exhibited repair in the Safranin O-positive cartilaginous tissue"},
      {"measurement": "histological score: cell morphology", "setting": "[3]; vs solvent alone", "value": "significant decrease"},
      {"measurement": "histological score: thickness of cartilage", "setting": "[3]; vs solvent alone", "value": "significant decrease"},
      {"measurement": "histological total score", "setting": "[3]; vs solvent alone", "value": "significant decrease"},
      {"measurement": "differentiation of CL-1 to adipocytes", "setting": "[4]", "value": "clearly suppress"}
    ]}
  ]
}
